Reference: patent US9808455B2

Tested on: extra cellular levels of acetylcholine in the prefrontal cortex
Assay: extracellular acetylcholine levels in the prefrontal cortex, preclinical studies in rats
Format: in vivo
Source text: At a mechanistic level, pharmacodynamic interactions between an acetylcholinesterase inhibitor and a 5HT6 receptor antagonist are feasible. […] Although the underlying mechanism is still unknown, it is likely due to increases in the release of acetylcholine from cholinergic neurons, On the other hand, donepezil increases the extracellular levels of acetylcholine by inhibiting the acetylcholinesterase to reduce the degradation of acetylcholine.

Structure (SMILES): O=S(=O)(c1ccccc1)c1cnc2c(N3CCNCC3)cccc2c1
- extra cellular levels of acetylcholine in the prefrontal cortex: small increase
